Active and inactive are the calls of the source. The calls are words filed in the database; no cut-off is given here.
Assays:
[1] = biological target: Pyruvate kinase PKM (Homo sapiens) (UniProt P14618); assay: Maximum activation of human PKM2 assessed as ATP product formation at 57 uM after 1 hr by luminescent pyruvate kinase-luciferase coupled assay relative to fructose-1,6-bis-phosphate
[2] = biological target: Pyruvate kinase PKM (Homo sapiens) (UniProt P14618); assay: Activation of PKM1 assessed as pyruvate formation by fluorescent pyruvate kinase-lactate dehydrogenase coupled assay
[3] = biological target: Pyruvate kinase PKM (Homo sapiens) (UniProt P14618); assay: Activation of PKM1 assessed as ATP product formation by luminescent pyruvate kinase-luciferase coupled assay
[4] = test system: O=P(O)(O)OC[C@H]1O[C@@](O)(COP(=O)(O)O)[C@@H](O)[C@@H]1O; assay: Activation of human PKM2 assessed as reduction of Km for phosphoenolpyruvate
[5] = test system: O=P(O)(O)OC[C@H]1O[C@@](O)(COP(=O)(O)O)[C@@H](O)[C@@H]1O; assay: Activation of human PKM2 assessed as effect on Km for ADP

Chain of Pyruvate kinase PKM (Homo sapiens) (P14618 2-531 limits assumed): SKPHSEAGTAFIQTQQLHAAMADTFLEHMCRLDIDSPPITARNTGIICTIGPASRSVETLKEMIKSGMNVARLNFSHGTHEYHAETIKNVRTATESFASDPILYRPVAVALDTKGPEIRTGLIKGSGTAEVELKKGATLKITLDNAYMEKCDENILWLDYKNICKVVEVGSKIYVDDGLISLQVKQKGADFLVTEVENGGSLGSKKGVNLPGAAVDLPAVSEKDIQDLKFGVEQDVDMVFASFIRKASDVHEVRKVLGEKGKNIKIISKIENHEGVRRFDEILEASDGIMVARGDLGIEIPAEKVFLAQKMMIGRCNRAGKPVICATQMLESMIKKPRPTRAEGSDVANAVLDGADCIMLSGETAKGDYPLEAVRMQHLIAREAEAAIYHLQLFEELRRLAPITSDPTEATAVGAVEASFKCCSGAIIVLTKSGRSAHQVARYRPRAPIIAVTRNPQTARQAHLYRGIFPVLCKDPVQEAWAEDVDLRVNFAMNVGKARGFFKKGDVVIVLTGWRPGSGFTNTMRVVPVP
Chain of Pyruvate kinase PKM (Homo sapiens), P14618 (P14618 whole entry): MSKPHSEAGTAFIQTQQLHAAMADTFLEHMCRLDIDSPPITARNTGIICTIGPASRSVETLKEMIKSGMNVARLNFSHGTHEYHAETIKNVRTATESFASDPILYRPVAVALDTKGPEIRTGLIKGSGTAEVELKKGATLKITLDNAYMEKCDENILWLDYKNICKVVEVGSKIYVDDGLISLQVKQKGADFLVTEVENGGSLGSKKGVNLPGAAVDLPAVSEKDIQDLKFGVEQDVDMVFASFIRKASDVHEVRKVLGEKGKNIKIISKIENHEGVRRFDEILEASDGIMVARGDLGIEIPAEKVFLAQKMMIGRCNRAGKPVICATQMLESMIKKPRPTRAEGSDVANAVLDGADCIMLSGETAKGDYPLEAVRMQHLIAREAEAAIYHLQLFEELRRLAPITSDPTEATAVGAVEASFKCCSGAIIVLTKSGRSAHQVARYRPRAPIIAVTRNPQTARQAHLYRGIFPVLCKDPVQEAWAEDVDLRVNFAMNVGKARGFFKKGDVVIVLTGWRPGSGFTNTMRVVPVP

| Molecule | Activity [1] | Activity [2] | Activity [3] | Km [4] [µM] | Km [5] [µM] |
| --- | --- | --- | --- | --- | --- |
| Cc1cc2c(s1)c1cnn(Cc3ccccc3Cl)c(=O)c1n2C | 96% | inactive | inactive | – | – |
| Cc1cc2c(s1)c1cnn(Cc3ccc(F)cc3)c(=O)c1n2C | 102% | inactive | inactive | – | – |
| Cn1c2cc(S(C)(=O)=O)sc2c2cnn(Cc3ccccc3F)c(=O)c21 | inactive | inactive | inactive | – | – |
| Cc1cc2c(s1)c1cnn(Cc3ccc(C(F)(F)F)cc3F)c(=O)c1n2C | 59% | inactive | inactive | – | – |
| Cc1ccc(Cn2ncc3c4sc(C)cc4n(C)c3c2=O)cc1 | 84% | inactive | inactive | – | – |
| Cc1cc2c(s1)c1c(C)nn(Cc3ccccc3F)c(=O)c1n2C | 56% | inactive | inactive | – | – |
| Cn1c2ccsc2c2ncn(Cc3ccccc3F)c(=O)c21 | 61% | inactive | inactive | – | – |
| Cc1cc2c(s1)c1cnn(Cc3ccc(F)cc3F)c(=O)c1n2C | – | inactive | inactive | – | – |
| CC(=O)Nc1cc2c(s1)c1cnn(Cc3ccccc3F)c(=O)c1n2C | 59% | inactive | inactive | – | – |
| Cc1cc2c(s1)c1cnn(Cc3ccc(C(F)(F)F)cc3)c(=O)c1n2C | 56% | inactive | inactive | – | – |
| Cn1c2ccsc2c2cnn(Cc3ccccc3F)c(=O)c21 | 93% | inactive | inactive | – | – |
| Pyruvate kinase PKM (Homo sapiens), P14618 | – | – | – | 100 | 100 |
| Cc1cc2c(s1)c1cnn(Cc3ccccc3)c(=O)c1n2C | – | inactive | inactive | – | – |
| Cc1cc2c(s1)c1cnn(Cc3ccc(F)c(F)c3F)c(=O)c1n2C | 69% | inactive | inactive | – | – |
| Cc1cc2c(s1)c1cnn(-c3ccccc3)c(=O)c1n2C | inactive | inactive | inactive | – | – |
| Cc1ccc(Cn2ncc3c4sc(C)cc4n(C)c3c2=O)c(F)c1 | 81% | inactive | inactive | – | – |
| Cn1c2cc(C=O)sc2c2cnn(Cc3ccccc3F)c(=O)c21 | 100% | inactive | inactive | – | – |
| CCn1c2cc(C)sc2c2cnn(Cc3ccccc3F)c(=O)c21 | 96% | inactive | inactive | – | – |
| Cn1c2cc(CO)sc2c2cnn(Cc3ccccc3F)c(=O)c21 | 103% | inactive | inactive | – | – |
| Cc1cc2c(s1)c1cnn(Cc3cccc(F)c3F)c(=O)c1n2C | 73% | inactive | inactive | – | – |
| Cc1cc2c(s1)c1cnn(Cc3ccc(Cl)cc3)c(=O)c1n2C | 91% | inactive | inactive | – | – |
| Cc1cc2[nH]c3c(=O)n(Cc4ccccc4F)ncc3c2s1 | inactive | inactive | inactive | – | – |
| CCCCCn1ncc2c3sc(C)cc3n(C)c2c1=O | 47% | inactive | inactive | – | – |

| Molecule | Activity [1] | Activity [2] | Activity [3] | Km [4] [µM] | Km [5] [µM] |
| --- | --- | --- | --- | --- | --- |
| Cc1cc2c(s1)c1cnn(Cc3c(F)cccc3F)c(=O)c1n2C | 94% | inactive | inactive | – | – |
| Cc1cc2c(s1)c1cnn(Cc3ccccc3F)c(=O)c1n2C(C)C | inactive | inactive | inactive | – | – |
| Cn1c2cc(C#N)sc2c2cnn(Cc3ccccc3F)c(=O)c21 | 84% | inactive | inactive | – | – |
| CCc1cc2c(s1)c1cnn(Cc3ccccc3F)c(=O)c1n2C | 105% | inactive | inactive | – | – |
| Cc1cc2c(s1)c1cnn(Cc3cccc(Cl)c3)c(=O)c1n2C | 99% | inactive | inactive | – | – |
| CC(O)c1cc2c(s1)c1cnn(Cc3ccccc3F)c(=O)c1n2C (stereo not drawn) | 120% | inactive | inactive | – | – |
| Cn1c2cc([N+](=O)[O-])sc2c2cnn(Cc3ccccc3F)c(=O)c21 | – | inactive | inactive | – | – |
| Cn1c2cc([S+](C)[O-])sc2c2cnn(Cc3ccccc3F)c(=O)c21 (stereo not drawn) | 98% | inactive | inactive | – | – |
| Cc1cc2c(s1)c1cnn(Cc3cccc(C)c3F)c(=O)c1n2C | 97% | inactive | inactive | – | – |
| Cn1c2cc([S+](C)[O-])sc2c2cnn(Cc3cccc(O)c3)c(=O)c21 (stereo not drawn) | 102% | inactive | inactive | – | – |
| Cc1cc2c(s1)c1cnn(Cc3c(F)c(F)cc(F)c3F)c(=O)c1n2C | 59% | inactive | inactive | – | – |
| COc1ccc(Cn2ncc3c4sc(C)cc4n(C)c3c2=O)cc1 | 96% | inactive | inactive | – | – |
| Cc1cc2c(s1)c1cnn(Cc3c(F)cccc3Cl)c(=O)c1n2C | 93% | inactive | inactive | – | – |
| CC(=O)c1cc2c(s1)c1cnn(Cc3ccccc3F)c(=O)c1n2C | 108% | inactive | inactive | – | – |
| CC(C)c1cc2c(s1)c1cnn(Cc3ccccc3F)c(=O)c1n2C | 106% | inactive | inactive | – | – |
| CSc1cc2c(s1)c1cnn(Cc3ccccc3F)c(=O)c1n2C | 96% | inactive | inactive | – | – |
| COc1cccc(Cn2ncc3c4sc([S+](C)[O-])cc4n(C)c3c2=O)c1 (stereo not drawn) | 99% | inactive | inactive | – | – |
| COc1cc2c(s1)c1cnn(Cc3ccccc3F)c(=O)c1n2C | – | inactive | inactive | – | – |
| COC(=O)c1cc2c(s1)c1cnn(Cc3ccccc3F)c(=O)c1n2C | 70% | inactive | inactive | – | – |
| Cc1cc2c(s1)c1cnn(Cc3ccccc3F)c(=O)c1n2C | 122% | inactive | inactive | – | – |
| COc1ccc(Cn2ncc3c4sc(C)cc4n(C)c3c2=O)cc1F | 68% | inactive | inactive | – | – |
| Cn1c2cc(B(O)O)sc2c2cnn(Cc3ccccc3F)c(=O)c21 | 101% | inactive | inactive | – | – |
| Cc1cc2c(s1)c1cnn(Cc3cccc(F)c3)c(=O)c1n2C | 92% | inactive | inactive | – | – |
